Data reported in US20170363646A1, “METHOD FOR DETECTING MOLECULES THAT INHIBIT THE INTERACTION OF CD36 PROTEIN WITH AMYLOID BETA” (Instituto de Investigaciones Cientificas y Servicios de …, priority 2015, published 2017).

Key:
[1] = target: T1, interaction between rCD36 and fAβ1-42 (Homo sapiens, UniProt P16671); experiment: colorimetric rCD36-fAβ1-42 interaction assay on polystyrene plate; assay type: binding; conditions: added 30 minutes prior to fAβ1-42 and maintained, p<0.05 by t-test, FIG. 7
T1 construct: the extracellular domain of the CD36 protein, corresponding to Gly30-Asn439; 6xHis (C); made in house; host or cells: Escherichia coli BL21 (DE3), pET30-CD36; purified by IMAC under denaturing conditions and renatured in PBS
T1 sequence (P16671 30-439): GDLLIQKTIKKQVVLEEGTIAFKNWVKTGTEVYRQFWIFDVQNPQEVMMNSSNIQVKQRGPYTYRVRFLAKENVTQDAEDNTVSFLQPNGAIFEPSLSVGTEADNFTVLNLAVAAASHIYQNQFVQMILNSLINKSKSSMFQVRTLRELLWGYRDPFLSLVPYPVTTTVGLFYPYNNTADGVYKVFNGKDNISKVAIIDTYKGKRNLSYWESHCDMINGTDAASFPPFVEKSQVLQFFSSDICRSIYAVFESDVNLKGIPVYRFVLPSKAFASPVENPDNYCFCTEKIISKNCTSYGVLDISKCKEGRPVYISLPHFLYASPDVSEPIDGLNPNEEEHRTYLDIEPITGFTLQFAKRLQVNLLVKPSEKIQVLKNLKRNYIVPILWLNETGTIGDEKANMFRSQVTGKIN
Description: The invention consists in the development of a rapid colorimetric procedure that through the adhesion of the recombinant protein CD36 to a polystyrene plate enables the evaluation of molecules that can inhibit the interaction of such protein and the amyloid beta. The process or method of this invention is based on the interaction of A) recombinant extracellular portion of the CD36 protein with B) the Aβ peptide in its fibril state. […] The presence of compounds that inhibit the ligand-receptor interaction in the reaction produces a reduction of the colorimetric signal generated after the addition of the substrate (FIG. 1). The fibrillar Aβ is prepared on the basis of the synthetic peptide incubated at 37° C., in distilled water. The fibrils are prepared by controlling the polymerization of the monomers, which is monitored through the Thioflavin T fluorescent assay (11). […]
Considering that the vast majority of the natural or synthetic compounds that will be tested in the screening phase are diluted in Dimethyl Sulfoxide (DMSO), the tolerance of the assay to this solvent was evaluated. First, the assay sensitivity was evaluated at a concentration of 0.1% DMSO in conjugated serial dilutions where concentrations of rCD36 and fAβ1-42 varied, similar to the description given in example 2 (FIG. 3). […] Later, the tolerance of the assay was evaluated at different doses of DMSO. […]

microglial cell line = conditions: previously demonstrated (17); cited from earlier work
[2] = target: interaction between CD36 and fAβ1-42 (Homo sapiens, UniProt P16671); conditions: cell-based assay, previously demonstrated (17); cited from earlier work
Chain of interaction between CD36 and fAβ1-42 (P16671 whole entry): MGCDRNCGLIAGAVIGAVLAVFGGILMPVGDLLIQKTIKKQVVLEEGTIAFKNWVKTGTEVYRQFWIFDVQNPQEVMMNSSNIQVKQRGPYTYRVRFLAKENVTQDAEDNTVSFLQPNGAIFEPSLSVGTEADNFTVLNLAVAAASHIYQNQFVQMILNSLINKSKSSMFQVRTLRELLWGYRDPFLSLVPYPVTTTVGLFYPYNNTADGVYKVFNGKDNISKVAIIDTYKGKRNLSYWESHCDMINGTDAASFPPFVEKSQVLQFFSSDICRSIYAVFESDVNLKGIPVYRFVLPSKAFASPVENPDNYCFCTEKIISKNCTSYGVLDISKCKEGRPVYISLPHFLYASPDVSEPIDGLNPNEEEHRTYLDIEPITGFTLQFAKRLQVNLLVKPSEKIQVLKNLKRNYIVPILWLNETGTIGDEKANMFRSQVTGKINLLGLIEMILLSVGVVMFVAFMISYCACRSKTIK

- decrease of the interaction between rCD36 and fAβ1-42 ([1]; ursolic acid 100 μM): significant decrease
- decrease of the interaction between rCD36 and fAβ1-42 ([1]; ursolic acid 200 μM): significant decrease
SMILES: C[C@H]1[C@H](C)CC[C@]2(C(=O)O)CC[C@]3(C)C(=CC[C@@H]4[C@@]5(C)CC[C@H](O)C(C)(C)[C@@H]5CC[C@]43C)[C@H]12 [ursolic acid]
- effect on Aβ-induced nitric oxide production (microglial cell line): this inhibition impacts on the Aβ-induced nitric oxide production
- inhibition of the interaction between CD36 and fAβ1-42 [2]: inhibits such interaction
